The values that follow come from patent publication US10604739B2, “Cardiomyocyte production” (Cellular Dynamics International, Inc., priority 2009, dated 2020).

“And” between values parts separate entries of the source, which are not always exact repeats. Equal values may be shown once.

Assay type in all cases: cell-based, human
The subject of experiment [1] is H9-TGZ cells. The experiment in a line: H9-TGZ Growth Factor Titration #2 (repeat). The settings on record: FIGS. 32A-C. Here is the method:
(§1) Aggregate formation and cardiac induction procedures of those iPS cells at different initial densities were performed essentially the same as described in Examples 4 except different concentrations of human HGF (hHGF) and FGF were applied to Aggregate Formation Medium, Aggregate Transition Medium and Cardiac Induction Medium.
Due to the issues with aggregate formation noted above, the H9-TGZ growth factor titration experiment was repeated. […] However, it is important to note that despite the overall poor performance of the cultures, the usual and expected decrease in performance at low FGF level was still discernable (FIGS. 32A-C).

For the next experiment, the system named is iPS6.1-MRB cells. Put plainly: iPS-MRB 1 L spinner qualification runs with and without HGF. To be noted: for CM/L (millions) / Purity (% RFP+): +HGF, 1 L spinner flask. The procedure:
IPS-MRB cells were maintained on Matrigel™ in TeSR medium (from Stem Cell Technologies) no later than when they would normally be ready to be passaged. IPS cells were grown in T-150 flasks throughout this example, but can be scaled for starting cells in other culture formats. Five T-150 flasks of iPS cells were harvested: media were aspirated and cells were incubated with 12 mL room temperature TrypLe™ (Invitrogen), a recombinant typsin-like enzyme, at 37° C. for 7 minutes. The cells were then transferred to five 50 ml conical tubes (one tube for each T-150 flask) containing 12 ml DMEM/F12 (GIBCO) with 10% fetal calf serum (FCS) (Chemicon). The cells were then pelleted at 1200 rpm for 5 minutes and supernatant aspirated. The pellet was resuspended in 10 mL aggregate promotion medium (TeSR medium containing 25 μg/ml Gentamicin, 1 μM H1152, and with or without 50 ng/ml human recombinant HGF). The resuspended pellet were combined into a single 250 ml conical tube (allowing volume for later dilution), if necessary. Cells were counted using CEDEX HiRES cell counter and then diluted to 1.0×10^6 cells/mL. Each 500 mL diluted cell stock was dispensed into one 1 L spinner flask (leaving room in spinner flasks for later dilution) and the flasks were placed on magnetic stir platform with a speed of 50 RPM (both side caps were loosed by two full turns to allow gas transfer).
On the next day (Day 1), flasks containing the cells were set in cell culture hood and suspended aggregate allowed to settle to the bottom of the flasks for 30 minutes. The spent media were aspirated using a 2 mL aspirating pipet with approximately 100 mL left in the flasks (if films of cells form on bottom after setting, shake flask back and forth in each direction to break them up before adding medium). Aggregate transition medium (50% TeSR medium, 45% DMEM containing GlutaMax™, 5% ES-qualified FCS, 25 μg/ml Gentamicin, 1 μM H1152, and with or without 50 ng/ml HGF) were added to the flasks using Pipeline machine to bring to the original volume. The flasks were returned to the stirring platform inside a 7% CO2 incubator and the agitator was started to operate at 50±1 RPM (both side caps were loosed by two full turns to allow gas transfer).
On Day 2, flasks containing the cells were set in cell culture hood and suspended aggregate allowed to settle to the bottom of the flasks for 15 minutes. The spent media were aspirated with approximately 100 mL left in the flasks. Aggregate suspension were gently mixed in flasks, and cardiac induction medium (90% TeSR medim, 10% ES-qualified FCS, 25 μg/ml Gentamicin, 50 ng/ml human recombinant bFGF, and with or without 50 ng/ml human recombinant HGF) were added to each flask to 1 L (2× dilution) with Pipeline machine. The flasks were returned to the stirring platform inside a 7% CO2 incubator and the agitator was started to operate at 50±1 RPM (both side caps were loosed by two full turns to allow gas transfer).
On Day 3, flasks containing the cells were set in cell culture hood and suspended aggregate allowed to settle to the bottom of the flasks for 15 minutes. The spent media were aspirated with approximately 100 mL left in the flasks. Spinner flasks were shaken back and forth to break large clumps. Cardiac induction medium were added back to each flask to bring back to the original volume for Days 3-7; cardiac maintenance medium were exchanged instead for Days 8, 10, 12. After every media exchange, the flasks were returned to the stirring platform inside a 7% CO2 incubator and the agitator was started to operate at 50±1 RPM (both side caps were loosed by two full turns to allow gas transfer).
Cell cultures were analyzed on Day 14 by total cell counting per flask at harvest, cTNT or RFP purity at harvest. Aggregate count was also carried on Day 2 and final stage and aggregate pictures were taken.
Three qualification runs were performed to confirm at large scale and with iPS6.1-MRB cells that removal of HGF has no measurable effect. […]

The test system of experiment [2] is H9-TGZ cells. Put plainly: H9-TGZ Growth Factor Titration #2. To be noted: HGF 0, 20, 50. The procedure:
as §1
While the iPS6.1 optimization was underway, a separate series of experiments was conducted to optimize the growth factor concentrations for the H9-TGZ cells. […] Therefore, the FGF range tested was higher than that in the recent iPS6.1 experiments. This experiment confirmed that optimum cardiomyocyte production requires 100-150 ng/mL FGF with the H9-TGZ cells (FIGS. 31A-C).

The subject of a further experiment is iPS6.1 cells. Put plainly: iPS6.1 Four Corners experiment, FGF x HGF cardiac induction. Here is the method:
as §1
Concurrent with the second iPS growth factor titration, a simple experiment (Table 19) was set up with iPS6.1 cells to test the 2×2 matrix of 0 and 25 ng/mL FGF and 0 and 50 ng/mL HGF. The positive concentrations of FGF and HGF were chosen based on the current best practices for iPS6.1 cells at the time and were identical to the conditions used for cardiac induction of H1 cells in both the plated and suspension processes. This experiment confirmed previous work showing the necessity of FGF for the process.

Take “HGF: human recombinant HGF (hepatic growth factor), R&D systems”: in the experiment on H9-TGZ cells [1], the “Trend of culture performance across HGF concentrations” value is on record as “no observable trend of culture performance”. Besides, the “Effect of HGF addition on yields” value in the experiment on iPS6.1-MRB cells ("normal" run, 1 L spinner) is on record as “no effect”. Further, the “CM/L (millions)” value in the experiment with iPS6.1-MRB cells (Run #1 (Jun. 6, 2009)) is on record as 48.9 millions; in the experiment with iPS6.1-MRB cells (Run #2 (Jun. 10, 2009)), 17.5 millions; with iPS6.1-MRB cells (Run #3 (Jun. 14, 2009)) it was 10.0 millions. The “Purity (% RFP+)” value was 6.6% in the experiment with iPS6.1-MRB cells (Run #1 (Jun. 6, 2009)); 3.7% with iPS6.1-MRB cells (Run #2 (Jun. 10, 2009)); 2.6% in the experiment on iPS6.1-MRB cells (Run #3 (Jun. 14, 2009)). Moreover, the “Trend in process efficiency across different HGF concentrations” value in the experiment on H9-TGZ cells [2] is reported as “No trend was observed in process efficiency”. Moreover, in the experiment on iPS6.1 cells (iPS6.1 cells, 25 ng/mL FGF and/or 50 ng/mL HGF, single T25 flask, day 14), the “input iPS:CM” value is recorded as 6725. The “% cTNT+” value in the experiment on iPS6.1 cells (iPS6.1 cells, 25 ng/mL FGF and/or 50 ng/mL HGF, single T25 flask, day 14, listed as HGF only) was 0% and 1.5% and 7%. In the experiment on iPS6.1 cells (inclusion of HGF (50 ng/mL) together with FGF (25 ng/mL) versus FGF alone), the Overall culture efficiency entry is “reduced overall culture efficiency”.
